Assay results reported in EPA's ToxValDB 9.5 (doi:10.2903/j.efsa.2009.222r).
Values after ≈ are worked out from the molar mass of the structure shown.

What was measured:
Lepomis macrochirus = conditions: acute; duration: 96 hours; mortality
Avena sativa = conditions: acute; duration: 21 days; other
Tagia sp. = conditions: acute; duration: 14 days; mortality
Daphnia magna = conditions: chronic/long-term; duration: 21 days
Apis mellifera = conditions: acute; duration: 48 hours; dermal; mortality
Pimephales promelas = conditions: chronic/long-term
Aphidius rhopalosiphi = test: LR50; higher = less toxic; conditions: acute; duration: 48 hours; mortality

CNC(=O)ON=C(C)SC [Methomyl]
LC50 (Colinus virginianus; acute, oral, diet, mortality): > 519 mg/kg-day | LD50 (Colinus virginianus; acute, oral, mortality): 24.2 mg/kg-day | NOEC (Colinus virginianus; reproduction developmental): 20.3 mg/kg-day | NOAEL (Rattus norvegicus; acute, clinical chemistry): 0.25 mg/kg-day | LD50 (Rattus norvegicus; acute, oral, mortality): 27.4 mg/kg-day | NOAEL (Rattus norvegicus; reproduction developmental, body weight): 4.6 mg/kg-day | LC50 (Lepomis macrochirus): 0.63 µg/mL (≈ 3.88 µM) | LEL (Avena sativa): 2250 g/ha | LC50 (Tagia sp.): 19 mg/kg | NOEC (Daphnia magna): 0.0016 mg/L | LD50 (Apis mellifera): 0.16 µg/piece | NOEC (Pimephales promelas): 0.073 mg/L | LR50 (Aphidius rhopalosiphi): 0.25 g/ha
